In ChEMBL document CHEMBL1201862, “PubChem BioAssay data set” (2004):
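All cell lines were grown in 96-well plates and treated with compound for 48 hours. GI50 is the concentration that inhibits growth by half.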 Calls of active or inactive are those of the source. No stated cut-off is given here; in the data, active = GI50 up to about 1.1 µM and inactive = higher.

What was measured:
Experiment in all cases: inhibition of tumour cell growth, NCI panel, 48 h
HOP-18 = test system: HOP-18
XF498 = test system: XF498
LXFL 529 = test system: LXFL 529
KM-20L2 = test system: KM-20L2
DMS-273 = test system: DMS-273
DLD-1 = test system: DLD-1
SNB-78 = test system: SNB-78
DMS-114 = test system: DMS-114
RXF 631 = test system: RXF 631

| SMILES | GI50 (HOP-18) | GI50 (XF498) | GI50 (LXFL 529) | GI50 (KM-20L2) | GI50 (DMS-273) | GI50 (DLD-1) | GI50 (SNB-78) | GI50 (DMS-114) | GI50 (RXF 631) |
| --- | --- | --- | --- | --- | --- | --- | --- | --- | --- |
| NC1=NS(=O)(=O)Nc2nc(-c3ccccc3)c(-c3ccccc3)nc21 | > 100 µM (inactive) | > 100 µM (inactive) | > 100 µM (inactive) | > 100 µM (inactive) | > 100 µM (inactive) | > 100 µM (inactive) | > 100 µM (inactive) | – | – |
| CC1NS(=O)(=O)N(C)C1=O (centres undefined) | – | > 100 µM (inactive) | > 100 µM (inactive) | – | > 100 µM (inactive) | > 100 µM (inactive) | > 100 µM (inactive) | > 100 µM (inactive) | > 100 µM (inactive) |
| COC(=O)/C(C#N)=C1\CCc2ccccc21 | – | > 100 µM (inactive) | > 100 µM (inactive) | > 100 µM (inactive) | > 100 µM (inactive) | > 100 µM (inactive) | – | > 100 µM (inactive) | – |
| COc1cc(CNc2cnc3cc(N)ccc3n2)cc(OC)c1OC | 78.5 µM (inactive) | 22.6 µM (inactive) | 34.9 µM (inactive) | 14 µM (inactive) | 0.191 µM (active) | 58.1 µM (inactive) | – | 18.8 µM (inactive) | – |
| CCOC(=O)CN.CCOC(=O)Nc1ccc(S(=O)(=O)OC)cc1.CCOC(=O)Nc1ccc(S(=O)(=O)OC)cc1 | > 50 µM (inactive) | – | > 50 µM (inactive) | > 50 µM (inactive) | > 50 µM (inactive) | > 50 µM (inactive) | > 50 µM (inactive) | > 50 µM (inactive) | > 50 µM (inactive) |
| Cc1ccc(C2(O)CC(c3ccc([N+](=O)[O-])o3)=NN2C(=O)COc2ccccc2Cl)cc1 (centres undefined) | 20.6 µM (inactive) | 16.9 µM (inactive) | 6.59 µM (inactive) | 8.65 µM (inactive) | 12.9 µM (inactive) | 6.08 µM (inactive) | 42.6 µM (inactive) | 12.8 µM (inactive) | 6.87 µM (inactive) |
| Cn1ccc(=NS(=O)(=O)c2ccccc2)cc1 | 85.3 µM (inactive) | > 100 µM (inactive) | > 100 µM (inactive) | > 100 µM (inactive) | > 100 µM (inactive) | > 100 µM (inactive) | > 100 µM (inactive) | > 100 µM (inactive) | > 100 µM (inactive) |
| Nc1nc(O)c2c(ncn2CCO)n1 | > 100 µM (inactive) | > 100 µM (inactive) | > 100 µM (inactive) | > 100 µM (inactive) | > 100 µM (inactive) | > 100 µM (inactive) | > 100 µM (inactive) | – | – |
| CC1=C(/C=C/C(C)=C/C=C/C(C)=C/C(=O)O)C(C)(C)CCC1 [TRETINOIN] | > 100 µM (inactive) | > 100 µM (inactive) | > 100 µM (inactive) | > 100 µM (inactive) | > 100 µM (inactive) | > 100 µM (inactive) | – | > 100 µM (inactive) | – |
| C#CCNC(=O)NC(CCCCNC(=O)OCc1ccccc1)C(=O)OCc1ccccc1 (centres undefined) | 23 µM (inactive) | 19.3 µM (inactive) | > 100 µM (inactive) | > 100 µM (inactive) | > 100 µM (inactive) | > 100 µM (inactive) | 23.9 µM (inactive) | 40.7 µM (inactive) | – |
| O=c1c2cccnc2ncn1CCN1CCCCC1 | – | > 100 µM (inactive) | > 100 µM (inactive) | > 100 µM (inactive) | > 100 µM (inactive) | > 100 µM (inactive) | > 100 µM (inactive) | > 100 µM (inactive) | – |
| CC(C(=O)c1ccc(O)cc1)C1(O)C(=O)Nc2c(Cl)cc(Cl)cc21 (centres undefined) | – | 23.6 µM (inactive) | 26.9 µM (inactive) | > 92.5 µM (inactive) | 70.5 µM (inactive) | > 89.7 µM (inactive) | 46.8 µM (inactive) | 13.9 µM (inactive) | > 84.9 µM (inactive) |
| O=C1c2cccc(O)c2C(=O)c2cccc(O)c21 [ANTHRARUFIN] | – | > 100 µM (inactive) | > 100 µM (inactive) | – | > 100 µM (inactive) | > 100 µM (inactive) | > 100 µM (inactive) | – | – |
| CC(C)(C)c1cc2c3c(c1)C(C(F)(F)F)(C(F)(F)F)O[Te]3(C)OC2(C(F)(F)F)C(F)(F)F | > 100 µM (inactive) | > 100 µM (inactive) | > 100 µM (inactive) | > 100 µM (inactive) | > 100 µM (inactive) | > 100 µM (inactive) | > 100 µM (inactive) | > 100 µM (inactive) | – |
| C#CCOCn1cnc2c(Sc3c([N+](=O)[O-])ncn3C)ncnc21 | – | > 100 µM (inactive) | 55.8 µM (inactive) | > 100 µM (inactive) | > 100 µM (inactive) | > 100 µM (inactive) | – | > 100 µM (inactive) | > 100 µM (inactive) |
| Nc1ccn(C2CCC(CO)O2)c(=O)n1 (centres undefined) | 98.9 µM (inactive) | > 100 µM (inactive) | – | > 100 µM (inactive) | > 100 µM (inactive) | > 100 µM (inactive) | > 65.6 µM (inactive) | > 100 µM (inactive) | – |
| COC(=O)C(=C\Sc1ccccc1)/C=C/C(=O)OC(C)(C)C | 16.2 µM (inactive) | 15 µM (inactive) | 3.5 µM (inactive) | 17.1 µM (inactive) | 11.9 µM (inactive) | 2.62 µM (inactive) | 15.1 µM (inactive) | 11.2 µM (inactive) | – |
| COc1ccc2nc3c(C(=O)NCCN(C)C)cccc3nc2c1 | 27.7 µM (inactive) | – | – | – | 4.42 µM (inactive) | – | 7.16 µM (inactive) | 5.82 µM (inactive) | – |
| Cc1cc(NCCCCCCCCNc2cc(C)nc3cc(N)ccc23)c2ccc(N)cc2n1 | – | – | 11.3 µM (inactive) | 19 µM (inactive) | 4.56 µM (inactive) | 16.9 µM (inactive) | – | 3.35 µM (inactive) | – |
| CCc1nc2c(O)ccc(O)c2nc1C | 20.9 µM (inactive) | 24.2 µM (inactive) | 4.97 µM (inactive) | 18.6 µM (inactive) | 19.9 µM (inactive) | 2.9 µM (inactive) | 27.8 µM (inactive) | 18.2 µM (inactive) | 19.1 µM (inactive) |
| CCOC(=O)C=C1CCC2(CC1)OCCO2 | > 100 µM (inactive) | > 100 µM (inactive) | > 100 µM (inactive) | > 100 µM (inactive) | – | > 100 µM (inactive) | – | – | > 100 µM (inactive) |
| CCOC(=O)C(=O)NNc1nc2c(s1)C(=O)c1ccccc1C2=O | 2.24 µM (inactive) | 2.09 µM (inactive) | 1.82 µM (inactive) | 18.1 µM (inactive) | 4.57 µM (inactive) | 5.04 µM (inactive) | 2.54 µM (inactive) | 1.76 µM (inactive) | 11.2 µM (inactive) |
| CC12OC3CC(O1)C1(C=O)C4CCC5(C)C(c6ccc(=O)oc6)CCC5(O)C4CCC1(C3)O2 (centres undefined) | 0.252 µM (active) | – | 0.139 µM (active) | 0.298 µM (active) | 0.0519 µM (active) | 0.0995 µM (active) | 0.131 µM (active) | 0.0414 µM (active) | – |
| Cc1ccc(O)c(C(=O)CCCC(=O)c2cc(C)ccc2O)c1 | > 100 µM (inactive) | > 100 µM (inactive) | > 100 µM (inactive) | > 100 µM (inactive) | 55.3 µM (inactive) | > 100 µM (inactive) | 55.8 µM (inactive) | 32.9 µM (inactive) | – |
| CCCCCCCCCC1C(C)c2c([nH]c3ccccc23)C2C(=O)N(c3ccccc3)C(=O)C21 (centres undefined) | – | 11.2 µM (inactive) | 35.6 µM (inactive) | 12.1 µM (inactive) | 12.5 µM (inactive) | 14.9 µM (inactive) | 21.4 µM (inactive) | 14.7 µM (inactive) | 3.05 µM (inactive) |
| N#Cc1c2nc3ccccc3nc2n2ccccc12 | – | > 100 µM (inactive) | > 100 µM (inactive) | > 100 µM (inactive) | > 100 µM (inactive) | > 100 µM (inactive) | > 100 µM (inactive) | > 100 µM (inactive) | – |
| O=C1C(Cl)C(c2cc(Br)ccc2O)N1n1cnc2ccccc2c1=O (centres undefined) | 6.3 µM (inactive) | 28.5 µM (inactive) | 17.1 µM (inactive) | 22.2 µM (inactive) | 15.7 µM (inactive) | 15.6 µM (inactive) | 30.9 µM (inactive) | 5.46 µM (inactive) | – |
| CC(C)(Br)C(=O)C(Br)Br | – | 11.6 µM (inactive) | 2.23 µM (inactive) | 18 µM (inactive) | 12.6 µM (inactive) | 1.77 µM (inactive) | 5.06 µM (inactive) | 5.36 µM (inactive) | 14 µM (inactive) |
